Activity calls are given as the source filed them. The rule behind the calls is not given here.
How the values were obtained:
HEK-293T = test: Antiinflammatory activity against HEK293T cells assessed as fold increase in TNFalpha-induced NF-kappaB activity at 10 uM incubated for 1 hr followed by TNFalpha treatment for 5 hrs by luciferase based assay (reference value: 17.1); format: functional, Homo sapiens
Plasmodium falciparum [1] = test: Antimalarial activity against asynchronous chloroquine-sensitive Plasmodium falciparum 3D7 assessed as parasite growth inhibition infected in erythrocytes incubated for 72 hrs by SYBR green dye based assay; format: functional, organism-based; settings: 3D7, 72 h
THP-1 [2] = test: Cytotoxicity against LPS-stimulated human THP-1 cells assessed as cell viability at 10 uM incubated for 12 hrs followed by LPS treatment measured after 4 hrs by PI staining based flow cytometry; format: functional; settings: time 16.0 hrs
THP-1 [3] = test: Antiinflammatory activity against human THP-1 cells assessed as inhibition of LPS-induced TNFalpha level at 10 uM incubated for 12 to 14 hrs followed by compound replenishment for 1 hr and subsequent LPS treatment for 4 hrs by ELISA assay (reference value: 93.43 %); format: functional; set-up: scale not given: the % may be the effect or the level left; settings: time 17-19 hrs
Plasmodium falciparum [4] = test: Antimalarial activity against asynchronous chloroquine-resistant Plasmodium falciparum K1 assessed as parasite growth inhibition infected in erythrocytes incubated for 72 hrs by SYBR green dye based assay; format: functional, organism-based; settings: K1, 72 h
[5] = Cytotoxicity against African green monkey Vero cells incubated for 3 days by fluorescence based assay; format: toxicity, cell-based; settings: chlorocebus sabaeus, time 3 day
Plasmodium yoelii [6] = test: Antimalarial activity against chloroquine-resistant Plasmodium yoelii N67 infected in Swiss mouse assessed as parasite growth suppression at 100 mg/kg/day, po for 4 days measured on day 7 relative to control; format: functional; settings: time 7 day
[7] = Toxicity in Swiss mouse infected with chloroquine-resistant Plasmodium yoelii N67 assessed as mean survival time at 100 mg/kg/day, po for 4 days (reference value: 7.2 +/- 1.3 day); format: organism-based; settings: in vivo, 96 h, time 4 day
Plasmodium yoelii [8] = test: Antimalarial activity against chloroquine-resistant Plasmodium yoelii N67 infected in Swiss mouse assessed as parasite growth suppression at 100 mg/kg/day, po for 4 days measured on day 4 relative to control; format: functional; settings: time 4 day

In the case of `Cc1c(C(=O)Nc2ccccc2)c(-c2ccccc2)c(-c2ccccc2)n1CCC1=CC(=O)OC1O` (stereo not drawn), the “fold change (FC)” value (HEK-293T) is reported as 10.3, the IC50 (Plasmodium falciparum [1]) is reported as 2.83 µM and the Activity (THP-1 [2]) is reported as “Active”. For the same molecule, the Activity (THP-1 [3]) was 13.5%.
With `COc1ccc(-c2c(C(=O)Nc3ccccc3)c(C)n(CCC3=CC(=O)OC3O)c2-c2ccc(OC)cc2)cc1` (stereo not drawn) the “fold change (FC)” value (HEK-293T) was 8.6, the IC50 (Plasmodium falciparum [1]) was 1.49 µM and the Activity (THP-1 [2]) was “Active”. It also gave an Activity (THP-1 [3]) of 85.2%.
For `COc1ccc(-c2c(-c3ccccc3)c(C(=O)Nc3ccccc3)c(C)n2CC2=CC(=O)OC2O)cc1` (stereo not drawn), the “fold change (FC)” value (HEK-293T) was 10.4, the IC50 (Plasmodium falciparum [1]) was 3.39 µM and the Activity (THP-1 [2]) was “Active”. It also gave an Activity (THP-1 [3]) of 79.88%.
With `Cc1c(C(=O)Nc2ccccc2)c(-c2ccc(F)cc2)c(-c2ccc(F)cc2)n1CCC1=CC(=O)OC1O` (stereo not drawn) the “fold change (FC)” value (HEK-293T) was 9.7, the IC50 (Plasmodium falciparum [1]) was > 5 µM and the Activity (THP-1 [2]) was “Active”. For the same molecule, the Activity (THP-1 [3]) was 12.55%.
In the case of `Cc1c(C(=O)Nc2ccccc2)c(-c2ccccc2)c(-c2ccc(C(C)C)cc2)n1C`, the IC50 (Plasmodium falciparum [4]) is reported as 4.34 µM and the IC50 (Plasmodium falciparum [1]) is reported as 2.94 µM.
`CCN(CC)CCCC(C)Nc1ccnc2cc(Cl)ccc12` (stereo not drawn) [CHLOROQUINE] showed a CC50 at 72 h [5] of 187 µM.
For `Cc1ccc(-c2c(-c3ccccc3)c(C(=O)Nc3ccccc3)c(C)n2CCC2=CC(=O)OC2O)cc1` (stereo not drawn), the “fold change (FC)” value (HEK-293T) was 13.1, the Activity (Plasmodium yoelii [6]) was 80.68% and the IC50 (Plasmodium falciparum [4]) was 3.92 µM. The IC50 (Plasmodium falciparum [1]) was 0.6 µM, the Activity (THP-1 [2]) was “Active” and the CC50 at 72 h [5] was > 200 µM. It also gave an MST [7] of 14.6 days, an Activity (Plasmodium yoelii [8]) of 34.6% and an Activity (THP-1 [3]) of 46.46%.
